Assay results published in patent publication US4686229A, “1,4-dihydropyridines” (Bayer Aktiengesellschaft, priority 1984, dated 1987).

test system: synthesis of PGI2; assay: Prostacyclin stimulation in whole blood (collagen-induced PGI2 formation, 6-keto-PGF1 alpha by radioimmunoassay); format: cell-based
From the text: The 1,4-dihydropyridines to be used according to the invention also stimulate the synthesis of PGI2. In contrast to thromboxane, which has a vasoconstricting action and initiates platelet aggregation, PGI^2 has a vasodilating action and inhibits platelet aggregation.
The formation of PGI2 can be induced in whole blood by collagen. The endoperoxides formed in platelets are probably converted into PGI2 by […]. The stable end product of the PGI2 conversion, 6-keto-PGF1 α, is determined radioimmunologically.

SMILES	Stimulation (%) (prostacyclin stimulation)
CC1=C(C(=O)OCCCc2cccnc2)C(c2ccc(CO)cc2)C(C(=O)OCCCc2cccnc2)=C(C)N1 [Example 1, Di-3-(pyrid-3-yl)-propyl 1,4-dihydro-4-(4-hydroxymethylphenyl)-2,6-dimethylpyridine-3,5-dicarboxylate]	158%
CC1=C(C(=O)OCCCc2cccnc2)CC(C(=O)OCCCc2cccnc2)=C(C)N1 [Example 4, Di-3-(pyrid-3-yl)-propyl 1,4-dihydro-2,6-dimethylpyridine-3,5-dicarboxylate]	~ 50%
COC(=O)C1C(C(=O)OCCCc2cccnc2)=C(C)NC(C)=C1C(=O)OCCCc1cccnc1 [Example 5, 4-Methyl 3,5-di-3-(pyrid-3-yl)-propyl 1,4-dihydro-2,6-dimethyl-pyridine-3,4,5-tricarboxylate]	100%
CC1=C(C(=O)OCCCc2cccnc2)C(c2ccc(C(=O)NCc3cccnc3)cc2)C(C(=O)OCCCc2cccnc2)=C(C)N1 [Example 10, Di-3-(pyrid-3-yl)-propyl 1,4-dihydro-2,6-dimethyl-4-[4-N-(pyrid-3-ylmethyl)-carbamoylphenyl]-pyridine-3,5-dicarboxylate]	~ 50%
CC1=C(C(=O)OCCCc2cccnc2)C(c2ccc(C(=O)NCc3ccco3)cc2)C(C(=O)OCCCc2cccnc2)=C(C)N1 [Example 11, Di-3-(pyrid-3-yl)-propyl 4-[4-N-(2-furylmethyl)-carbamoylphenyl]-1,4-dihydro-2,6-dimethyl-pyridine-3,5-dicarboxylate]	~ 100%
